Data as given in the supplement of paper PMC11061612.

Legend:
A375 (Melanoma) = experiment: Bliss excess, mean over the matrix (fraction); higher = more synergy
Procedure, shortened: (§1)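 After 24 hours at 37°C and 5% CO2 in 1536-well plates, cells in DMEM/F12 or RPMI plus 10% FBS received two-drug dose matrices for 72 hours. Viability came from CellTiter-Glo 2.0 luminescence and was scaled as inhibition, anchored at 0 by vehicle wells and at 1 by blank wells. Combination Emax is taken as the second-highest inhibition in the matrix, and Bliss excess as the observed combination effect less EA + EB − EA·EB, with EA and EB the single-agent effects.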

[1] = tested on: Daudi (Burkitt's Lymphoma); experiment: as above
Procedure, shortened: as §1

[2] = tested on: GRANTA-519 (B-Cell Non-Hodgkin's Lymphoma); experiment: as above
Procedure, shortened: as §1

[3] = tested on: JJN-3 (Plasma Cell Myeloma); experiment: as above
Procedure, shortened: as §1

[4] = tested on: NCI-H1048 (Small Cell Lung Carcinoma); experiment: as above
Procedure, shortened: as §1

[5] = tested on: RPMI-8402 (T-Lymphoblastic Leukemia); experiment: as above
Procedure, shortened: as §1

[6] = tested on: SCC90 (Head and Neck Carcinoma); experiment: as above
Procedure, shortened: as §1

SK-N-DZ (Neuroblastoma) [7] = experiment: as above
Procedure, shortened: as §1

[8] = tested on: BT-474 (Breast Carcinoma); experiment: combination Emax (second highest fraction inhibited in the dose matrix, 72 h); higher = more inhibition; extreme values may be limits of the assay
Procedure, shortened: as §1

GCIY (Gastric Carcinoma) = experiment: as above
Procedure, shortened: as §1

HT-144 (Melanoma) = experiment: as above
Procedure, shortened: as §1

[9] = tested on: L-363 (Plasma Cell Myeloma); experiment: as above
Procedure, shortened: as §1

[10] = tested on: MDA-MB-175-VII (Breast Carcinoma); experiment: as above
Procedure, shortened: as §1

[11] = tested on: NCI-H1048 (Small Cell Lung Carcinoma); experiment: as above
Procedure, shortened: as §1

[12] = tested on: NCI-H1648 (Lung Adenocarcinoma); experiment: as above
Procedure, shortened: as §1

[13] = tested on: NCI-H2023 (Non-Small Cell Lung Carcinoma); experiment: as above
Procedure, shortened: as §1

[14] = tested on: NCI-H2170 (Squamous Cell Lung Carcinoma); experiment: as above
Procedure, shortened: as §1

[15] = tested on: SCC90 (Head and Neck Carcinoma); experiment: as above
Procedure, shortened: as §1

SK-N-DZ (Neuroblastoma) [16] = experiment: as above
Procedure, shortened: as §1

[17] = tested on: TOV-21G (Ovarian Carcinoma); experiment: as above
Procedure, shortened: as §1
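Throughout, for Bliss excess, mean over the matrix: after 72 h of two-drug dosing.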

Structure (SMILES) | Bliss excess (A375 (Melanoma)) | Bliss excess [1] | Bliss excess [2] | Bliss excess [3] | Bliss excess [4] | Bliss excess [5] | Bliss excess [6] | Bliss excess (SK-N-DZ (Neuroblastoma) [7]) | combination Emax [8] | combination Emax (GCIY (Gastric Carcinoma)) | combination Emax (HT-144 (Melanoma)) | combination Emax [9] | combination Emax [10] | combination Emax [11] | combination Emax [12] | combination Emax [13] | combination Emax [14] | combination Emax [15] | combination Emax (SK-N-DZ (Neuroblastoma) [16]) | combination Emax [17]
C[C@@H]1COCCN1c1cc(C2([S@](C)(=N)=O)CC2)nc(-c2ccnc3[nH]ccc23)n1 [AZD6738] + O=C(c1cc(Cc2n[nH]c(=O)c3ccccc23)ccc1F)N1CCN(C(=O)C2CC2)CC1 [Olaparib] (first compound max 10 µM, 7x7, partner max 10 µM) | 0.0238 | -0.0239 | -0.0308 | -0.0548 | 0.0581 | 0.013 | 0.021 | -0.0019 | 0.218 | 0.811 | 0.859 | 0.854 | 0.352 | 0.786 | 0.689 | 0.846 | 0.71 | 0.48 | 0.915 | 0.538
COc1cccc(OCCCN)c1-c1cc(Nc2cnc(C#N)cn2)n[nH]1 [Prexasertib] + C[C@@H]1COCCN1C2=NC(=NC(=C2)C3(CC3)[S@](=N)(=O)C)C4=C5C=CNC5=NC=C4 [AZD6738] (first compound max 1 µM, 7x7, partner max 10 µM) | 0.0067 | -0.0295 | -0.062 | -0.0519 | -0.0191 | 0.001 | -0.0457 | 0.008 | 0.133 | 0.911 | 0.853 | 1 | 0.398 | 0.694 | 0.847 | 0.81 | 0.847 | 0.679 | 1 | 0.591
COc1nnc2ccc(N3CCC(c4ccc(OCCN5CCN(C)C(=O)[C@H]5C)cc4)CC3)nn12 [AZD5153] + CCN(CCO)CCCOc1ccc2c(Nc3cc(CC(=O)Nc4cccc(F)c4)[nH]n3)ncnc2c1 [AZD2811] (first compound max 1 µM, 7x7, partner max 1 µM) | -0.0295 | 0.0303 | 0.0771 | 0.0098 | -0.042 | -0.031 | -0.0547 | -0.0722 | 0.368 | 0.63 | 0.48 | 0.589 | 0.509 | 0.514 | 0.669 | 0.422 | 0.717 | 0.452 | 0.8 | 0.749
COc1nnc2ccc(N3CCC(c4ccc(OCCN5CCN(C)C(=O)[C@H]5C)cc4)CC3)nn12 [AZD5153] + C[C@@H]1COCCN1C2=NC(=NC(=C2)C3(CC3)[S@](=N)(=O)C)C4=C5C=CNC5=NC=C4 [AZD6738] (first compound max 1 µM, 7x7, partner max 10 µM) | 0.0552 | 0.0365 | 0.0096 | -0.0394 | 0.029 | -0.0209 | 0.0164 | 0.0472 | 0.483 | 0.794 | 0.713 | 0.849 | 0.529 | 0.678 | 0.821 | 0.7 | 0.788 | 0.416 | 0.979 | 0.891
NC1(C(=O)N[C@@H](CCO)c2ccc(Cl)cc2)CCN(c2ncnc3[nH]ccc23)CC1 [Capivasertib] + CCN(CCO)CCCOc1ccc2c(Nc3cc(CC(=O)Nc4cccc(F)c4)[nH]n3)ncnc2c1 [AZD2811] (first compound max 10 µM, 7x7, partner max 1 µM) | -0.0008 | 0.103 | 0.0258 | -0.0148 | -0.0003 | -0.0421 | 0.0332 | 0.0051 | 0.348 | 0.504 | 0.764 | 0.549 | 0.683 | 0.784 | 0.525 | 0.412 | 0.834 | 0.867 | 0.619 | 0.794
Cn1cnc2c(F)c(Nc3ccc(Br)cc3Cl)c(C(=O)NOCCO)cc21 [Selumetinib] + CCN(CCO)CCCOc1ccc2c(Nc3cc(CC(=O)Nc4cccc(F)c4)[nH]n3)ncnc2c1 [AZD2811] (first compound max 10 µM, 7x7, partner max 1 µM) | -0.0274 | 0.0504 | 0.0288 | 0.0552 | -0.0121 | 0.0136 | 0.0116 | -0.0764 | 0.0839 | 0.371 | 0.786 | 0.116 | 0.485 | 0.611 | 0.593 | 0.275 | 0.64 | 0.827 | 0.621 | 0.48
CCN(CCO)CCCOc1ccc2c(Nc3cc(CC(=O)Nc4cccc(F)c4)[nH]n3)ncnc2c1 [AZD2811] + C[C@@H]1COCCN1C2=NC(=NC(=C2)C3(CC3)[S@](=N)(=O)C)C4=C5C=CNC5=NC=C4 [AZD6738] (first compound max 1 µM, 7x7, partner max 10 µM) | -0.0573 | 0.0457 | -0.0269 | 0.0338 | -0.0304 | -0.0312 | 0.019 | -0.0507 | 0.239 | 0.851 | 0.706 | 0.807 | 0.384 | 0.804 | 0.633 | 0.818 | 0.803 | 0.353 | 0.96 | 0.56
C=CCn1c(=O)c2cnc(Nc3ccc(N4CCN(C)CC4)cc3)nc2n1-c1cccc(C(C)(C)O)n1 [AZD1775] + O=C(c1cc(Cc2n[nH]c(=O)c3ccccc23)ccc1F)N1CCN(C(=O)C2CC2)CC1 [Olaparib] (first compound max 1 µM, partner max 10 µM) | -0.0161 | 0.0043 | -0.0679 | -0.0591 | -0.0389 | 0.0113 | -0.0686 | -0.0122 | 0.237 | 0.568 | 0.606 | 0.964 | 0.23 | 0.874 | 0.702 | 0.717 | 0.58 | 0.822 | 0.935 | 0.587
COc1nnc2ccc(N3CCC(c4ccc(OCCN5CCN(C)C(=O)[C@H]5C)cc4)CC3)nn12 [AZD5153] + C=CCn1c(=O)c2cnc(Nc3ccc(N4CCN(C)CC4)cc3)nc2n1-c1cccc(C(C)(C)O)n1 [AZD1775] (first compound max 1 µM, partner max 1 µM) | -0.0212 | -0.0642 | -0.0227 | -0.0673 | -0.0823 | -0.0212 | -0.0282 | -0.0084 | 0.526 | 0.605 | 0.651 | 0.935 | 0.432 | 0.787 | 0.737 | 0.501 | 0.735 | 0.714 | 0.987 | 0.891
Cn1cnc2c(F)c(Nc3ccc(Br)cc3Cl)c(C(=O)NOCCO)cc21 [Selumetinib] + C[C@@H]1COCCN1C2=NC(=NC(=C2)C3(CC3)[S@](=N)(=O)C)C4=C5C=CNC5=NC=C4 [AZD6738] (first compound max 10 µM, 7x7, partner max 10 µM) | 0.0189 | 0.0042 | 0.0067 | 0.0533 | 0.0132 | -0.0196 | 0.0126 | -0.0083 | 0.0449 | 0.704 | 0.864 | 0.801 | 0.432 | 0.67 | 0.752 | 0.477 | 0.618 | 0.764 | 0.986 | 0.809
CC1(C)CCC(CN2CCN(c3ccc(C(=O)NS(=O)(=O)c4ccc(NCC5CCOCC5)c([N+](=O)[O-])c4)c(Oc4cnc5[nH]ccc5c4)c3)CC2)=C(c2ccc(Cl)cc2)C1 [Venetoclax] + COc1cc(Nc2ncc3c(n2)-c2ccc(Cl)cc2C(c2c(F)cccc2OC)=NC3)ccc1C(=O)O [Alisertib] (first compound max 1 µM, 7x7, partner max 10 µM) | 0.0294 | -0.0718 | 0.438 | 0.45 | 0.0987 | -0.0525 | 0.135 | 0.077 | 0.242 | 0.94 | 0.358 | 0.772 | 0.238 | 0.948 | 0.58 | 0.477 | 0.666 | 0.687 | 0.888 | 0.682
CN(C)CCCOc1ccc(-c2ccc3ncc4c(c3c2)n(C2CCOCC2)c(=O)n4C)cn1 [AZD0156] + C[C@@H]1COCCN1C2=NC(=NC(=C2)C3(CC3)[S@](=N)(=O)C)C4=C5C=CNC5=NC=C4 [AZD6738] (first compound max 1 µM, 7x7, partner max 10 µM) | 0.0378 | -0.0031 | -0.0335 | 0.161 | -0.0129 | 0.0028 | 0.0037 | 0.031 | 0.198 | 0.851 | 0.721 | 0.92 | 0.342 | 0.468 | 0.676 | 0.836 | 0.799 | 0.358 | 0.975 | 0.652
NC1(C(=O)N[C@@H](CCO)c2ccc(Cl)cc2)CCN(c2ncnc3[nH]ccc23)CC1 [Capivasertib] + Cn1cnc2c(F)c(Nc3ccc(Br)cc3Cl)c(C(=O)NOCCO)cc21 [Selumetinib] (first compound max 10 µM, 7x7, partner max 10 µM) | 0.0344 | -0.0138 | -0.0205 | 0.0565 | 0.0363 | -0.037 | 0.0331 | 0.0254 | 0.39 | 0.512 | 0.985 | 0.605 | 0.957 | 0.7 | 0.893 | 0.369 | 0.653 | 0.992 | 0.405 | 0.876
